US9216173B2, “2-Pyridyl carboxamide-containing spleen tyrosine kinase (SYK) inhibitors” (Merck Sharp & Dohme Corp., priority 2011, dated 2015)

target: T1, recombinant human GST-SYK (Homo sapiens, UniProt P43405); experiment: Homogeneous Time-Resolved Fluorescence (HTRF) assay for the recombinant human Syk enzyme; assay type: biochemical; details: GST-hSYK 5 pM, ATP 25 μM, 10-dose titration 10 μM to 0.508 nM; read-out: IC50
T1 construct: purchased Carna Biosciences 08-176
Experimental: Homogeneous Time-Resolved Fluorescence (HTRF) Assay for the Recombinant Human Syk Enzyme
A recombinant GST-hSYK fusion protein was used to measure potency of compounds to inhibit human Syk activity. […] Final volume of the reaction was 10 μL. Phosphorylation of the peptide was allowed to proceed for 45 minutes at room temperature. To quench the reaction and detect the phosphorylated product, 2 nM of a Europium-anti-phosphotyrosine antibody (Perkin Elmer #AD0161) and 70 nM SA-APC (Perkin-Elmer #CR130-100) were added together in 15 mM Tris pH 7.5, 40 mM EDTA, 0.01% tween 20. Final volume of the quenching solution was 10 μL. The resulting HTRF signal was measured after 30 minutes on an EnVision (Perkin-Elmer) reader using a time-resolved fluorescence protocol.

| IC50 [µM] | SMILES |
| --- | --- |
| 0.012 | Cc1cc(C)nc(Nc2cc(NC(C(N)=O)C(C)C)cnc2C(N)=O)c1 (stereo not drawn) [Example 1.41, 5-[(1-carbamoyl-2-methylpropyl)amino]-3-[(4,6-dimethylpyridin-2-yl)amino]pyridine-2-carboxamide] |
| 1.3 | Cc1nc(C)c(Cl)c(Nc2cc(N[C@@H]3CCCC[C@@H]3N)cnc2C(N)=O)n1 [Example 1.126, 5-{[(1R,2S)-2-aminocyclohexyl]amino}-3-[(5-chloro-2,6-dimethylpyrimidin-4-yl)amino]pyridine-2-carboxamide] |
| 0.34 | Cn1ccc(Nc2cc(N[C@@H]3CS(=O)(=O)CC[C@@H]3N)cnc2C(N)=O)n1 (relative stereo) [Example 1.89, rel-5-{[(3S,4S)-4-amino-1,1-dioxidotetrahydro-2H-thiopyran-3-yl]amino}-3-[(1-methyl-1H-pyrazol-3-yl)amino]pyridine-2-carboxamide] |

same assay, conditions: GST-hSYK 5 pM, ATP 25 μM, 10-dose titration 10 μM to 0.508 nM; read-out: rhSYK Activity (IC50 rating)

| SMILES | IC50 [µM] |
| --- | --- |
| Cc1cc(C)nc(Nc2cc(NCC(N)C(F)F)cnc2C(N)=O)c1 (stereo not drawn) [Example 2.4, 5-[(2-amino-3,3-difluoropropyl)amino]-3-[(4,6-dimethylpyridin-2-yl)amino]pyridine-2-carboxamide] | 0.01 to 0.1 |
| COc1cccc(Nc2cc(N[C@@H]3CCCC[C@@H]3N)cnc2C(N)=O)n1 [Example 1.13, 5-{[(1R,2S)-2-aminocyclohexyl]amino}-3-[(6-methoxypyridin-2-yl)amino]pyridine-2-carboxamide] | < 0.01 |
| CC1=CCCc2nc(Nc3cc(N[C@@H]4CCCC[C@@H]4N)cnc3C(N)=O)ccc21 [Example 18, 5-{[(1R,2S)-2-aminocyclohexyl]amino}-3-[(5-methyl-7,8-dihydroquinolin-2-yl)amino]pyridine-2-carboxamide] | < 0.01 |
| Cc1cc(C)nc(Nc2cc(NCC(N)CO)cnc2C(N)=O)c1 (stereo not drawn) [Example 2.14, 5-[(2-amino-3-hydroxypropyl)amino]-3-[(4,6-dimethylpyridin-2-yl)amino]pyridine-2-carboxamide] | 0.01 to 0.1 |
| COC[C@H](N)CNc1cnc(C(N)=O)c(Nc2cccc(C(F)(F)F)n2)c1 [Example 1.105, 5-{[(2R)-2-amino-3-methoxypropyl]amino}-3-{[6-(trifluoromethyl)pyridin-2-yl]amino}pyridine-2-carboxamide] | < 0.01 |
| Cc1nc(Nc2cc(N[C@@H]3CCCC[C@@H]3N)cnc2C(N)=O)ccc1-c1ccc(CO)cc1 [Example 3.7, 5-{[(1R,2S)-2-aminocyclohexyl]amino}-3-({5-[4-(hydroxymethyl)phenyl]-6-methylpyridin-2-yl}amino)pyridine-2-carboxamide] | < 0.01 |
| CCC(CN)Nc1cnc(C(N)=O)c(Nc2ccn(-c3ccc(F)cc3)n2)c1 (stereo not drawn) [Example 1.96, 5-{[1-(aminomethyl)propyl]amino}-3-{[1-(4-fluorophenyl)-1H-pyrazol-3-yl]amino}pyridine-2-carboxamide] | < 0.01 |
| Cc1cc(C)nc(Nc2cc(NC(C(N)=O)C(C)C)cnc2C(N)=O)c1 (stereo not drawn) [Example 1.41, 5-[(1-carbamoyl-2-methylpropyl)amino]-3-[(4,6-dimethylpyridin-2-yl)amino]pyridine-2-carboxamide] | 0.01 to 0.1 |
| Cc1cc(C)nc(Nc2cc(NC(CN)c3ccccc3)cnc2C(N)=O)c1 (stereo not drawn) [Example 1.22, 5-[(2-amino-1-phenylethyl)amino]-3-[(4,6-dimethylpyridin-2-yl)amino]pyridine-2-carboxamide] | < 0.01 |
| NC(=O)c1ncc(N[C@@H]2CCCC[C@@H]2N)cc1Nc1cccc(F)n1 [Example 1.48, 5-{[(1R,2S)-2-aminocyclohexyl]amino}-3-[(6-fluoropyridin-2-yl)amino]pyridine-2-carboxamide] | < 0.01 |
| COc1cc(Nc2cc(N[C@@H]3CCCC[C@@H]3N)cnc2C(N)=O)nc(OC)n1 [Example 1.124, 5-{[(1R,2S)-2-aminocyclohexyl]amino}-3-[(2,6-dimethoxypyrimidin-4-yl)amino]pyridine-2-carboxamide] | < 0.01 |
| Cc1cc(C)nc(Nc2cc(NC(C)(C)CN)cnc2C(N)=O)c1 [Example 1.19, 5-[(2-amino-1,1-dimethylethyl)amino]-3-[(4,6-dimethylpyridin-2-yl)amino]pyridine-2-carboxamide] | 0.01 to 0.1 |
| Cn1ccc(Nc2cc(N[C@@H]3CS(=O)(=O)CC[C@@H]3N)cnc2C(N)=O)n1 (relative stereo) [Example 1.89, rel-5-{[(3S,4S)-4-amino-1,1-dioxidotetrahydro-2H-thiopyran-3-yl]amino}-3-[(1-methyl-1H-pyrazol-3-yl)amino]pyridine-2-carboxamide] | 0.1 to 1 |
| Cc1nc(Nc2cc(N[C@@H]3CCCC[C@@H]3N)cnc2C(N)=O)ccc1-c1ccc2c(=O)nc[nH]c2c1 [Example 3.21, 5-{[(1R,2S)-2-aminocyclohexyl]amino}-3-{[6-methyl-5-(4-oxo-1,4-dihydroquinazolin-7-yl)pyridin-2-yl]amino}pyridine-2-carboxamide] | < 0.01 |

Now from value to compound:

| IC50 [µM] | SMILES |
| --- | --- |
| < 0.01 | NC(=O)c1ncc(NCC2(N)CC2)cc1Nc1cccc(C(F)(F)F)n1 [Example 1.103, 5-{[(1-aminocyclopropyl)methyl]amino}-3-{[6-(trifluoromethyl)pyridin-2-yl]amino}pyridine-2-carboxamide] |
| 0.01 to 0.1 | Cc1cc(C)nc(Nc2cc(NCC3(N)CCOCC3)cnc2C(N)=O)c1 [Example 1.34, 5-{[(4-aminotetrahydro-2H-pyran-4-yl)methyl]amino}-3-[(4,6-dimethylpyridin-2-yl)amino]pyridine-2-carboxamide] |
| < 0.01 | CC(C)c1cccc(Nc2cc(N[C@@H]3CCCC[C@@H]3N)cnc2C(N)=O)n1 [Example 1.54, 5-{[(1R,2S)-2-aminocyclohexyl]amino}-3-{[6-(1-methylethyl)pyridin-2-yl]amino}pyridine-2-carboxamide] |
| < 0.01 | Cc1cc(Nc2cc(N[C@@H]3CCCC[C@@H]3N)cnc2C(N)=O)nc(-c2ccnn2C)c1 [Example 1.112, 5-{[(1R,2S)-2-aminocyclohexyl]amino}-3-{[4-methyl-6-(1-methyl-1H-pyrazol-5-yl)pyridin-2-yl]amino}pyridine-2-carboxamide] |
| < 0.01 | Cc1nc(Cl)cc(Nc2cc(N[C@@H]3CCCC[C@@H]3N)cnc2C(N)=O)n1 [Example 1.127, 5-{[(1R,2S)-2-aminocyclohexyl]amino}-3-[(6-chloro-2-methylpyrimidin-4-yl)amino]pyridine-2-carboxamide] |
| < 0.01 | Cc1cc(C)nc(Nc2cc(N[C@H]3CCC[C@H]3N)cnc2C(N)=O)c1 (single isomer, unassigned) [Example 1.26] |
| < 0.01 | COc1cc(C)nc(Nc2cc(N[C@@H]3CCOC[C@@H]3N)cnc2C(N)=O)c1 [Example 1.131, 5-{[(3R,4R)-3-aminotetrahydro-2H-pyran-4-yl]amino}-3-[(4-methoxy-6-methylpyridin-2-yl)amino]pyridine-2-carboxamide] |
| < 0.01 | C[C@H](N)CNc1cnc(C(N)=O)c(Nc2cccc(C(F)(F)F)n2)c1 [Example 1.104, 5-{[(2S)-2-aminopropyl]amino}-3-{[6-(trifluoromethyl)pyridin-2-yl]amino}pyridine-2-carboxamide] |
| < 0.01 | Cc1cncc(Nc2cc(N[C@@H]3CCCC[C@@H]3N)cnc2C(N)=O)n1 [Example 1.121, 5-{[(1R,2S)-2-aminocyclohexyl]amino}-3-[(6-methylpyrazin-2-yl)amino]pyridine-2-carboxamide] |
| < 0.01 | Cc1nc(Nc2cc(N[C@@H]3CCCC[C@@H]3N)cnc2C(N)=O)ccc1-c1cccc2c1CNC2=O [Example 3.12, 5-{[(1R,2S)-2-aminocyclohexyl]amino}-3-{[6-methyl-5-(1-oxo-2,3-dihydro-1H-isoindol-4-yl)pyridin-2-yl]amino}pyridine-2-carboxamide] |
| < 0.01 | Cc1nc(Nc2cc(N[C@@H]3CCCC[C@@H]3N)cnc2C(N)=O)ccc1-c1cccc([N+](=O)[O-])c1 [Example 3.3, 5-{[(1R,2S)-2-aminocyclohexyl]amino}-3-{[6-methyl-5-(3-nitrophenyl)pyridin-2-yl]amino}pyridine-2-carboxamide] |
| < 0.01 | COc1ccc(-c2ccc(Nc3cc(N[C@@H]4CCCC[C@@H]4N)cnc3C(N)=O)nc2C)cn1 [Example 3.22, 5-{[(1R,2S)-2-aminocyclohexyl]amino}-3-[(6′-methoxy-2-methyl-3,3′-bipyridin-6-yl)amino]pyridine-2-carboxamide] |
| < 0.01 | COc1ncc(-c2ccc(Nc3cc(N[C@@H]4CCCC[C@@H]4N)cnc3C(N)=O)nc2C)cn1 [Example 3.24, 5-{[(1R,2S)-2-aminocyclohexyl]amino}-3-{[5-(2-methoxypyrimidin-5-yl)-6-methylpyridin-2-yl]amino}pyridine-2-carboxamide] |
| 1 to 10 | Cc1nc(C)c(Cl)c(Nc2cc(N[C@@H]3CCCC[C@@H]3N)cnc2C(N)=O)n1 [Example 1.126, 5-{[(1R,2S)-2-aminocyclohexyl]amino}-3-[(5-chloro-2,6-dimethylpyrimidin-4-yl)amino]pyridine-2-carboxamide] |
| 0.1 to 1 | CN1CCN(Cc2cccc(Nc3cc(N[C@@H]4CCCC[C@@H]4N)cnc3C(N)=O)n2)CC1 [Example 1.61, 5-{[(1R,2S)-2-aminocyclohexyl]amino}-3-({6-[(4-methylpiperazin-1-yl)methyl]pyridin-2-yl}amino)pyridine-2-carboxamide] |
| 0.01 to 0.1 | C[C@H](N)CNc1cnc(C(N)=O)c(Nc2ccn(C)n2)c1 [Example 1.92, 5-{[(2S)-2-aminopropyl]amino}-3-[(1-methyl-1H-pyrazol-3-yl)amino]pyridine-2-carboxamide] |
| < 0.01 | COc1ccc(-n2ccc(Nc3cc(N[C@@H]4CCCC[C@@H]4N)cnc3C(N)=O)n2)cc1 [Example 1.72, 5-{[(1R,2S)-2-aminocyclohexyl]amino}-3-{[1-(4-methoxyphenyl)-1H-pyrazol-3-yl]amino}pyridine-2-carboxamide] |
| 0.01 to 0.1 | NC(=O)c1ncc(N[C@@H]2CCCC[C@@H]2N)cc1Nc1nc(Cl)ncc1F [Example 1.128, 5-{[(1R,2S)-2-aminocyclohexyl]amino}-3-[(2-chloro-5-fluoropyrimidin-4-yl)amino]pyridine-2-carboxamide] |
| 0.1 to 1 | CCNC(=O)Nc1cnc(C(N)=O)c(Nc2cc(C)cc(C)n2)c1 [Example 15, 3-[(4,6-dimethylpyridin-2-yl)amino]-5-[(ethylcarbamoyl)amino]pyridine-2-carboxamide] |
